Target: T1, Avi-KRAS G12D (1-169) GppNHp/RAF1 RBD-3xFLAG (52-151) (Homo sapiens, UniProt P01116, G12D)
T1 construct: Avi-KRAS G12D (1-169)
Assay: Raf1-KRAS G12D-GppNHP disruption HTRF assay (Biological Example 1)
Format: binding
Conditions: KRAS G12D-GppNHp/RAF1 RBD HTRF
How it was run: (§1)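 Using HTRF, the loss of KRAS–effector RAF1 complex was quantified in 50 mM Tris pH 7.5 buffer with 100 mM NaCl and 0.1% BSA. The protein step and reagent step ran 1 h each at room temperature. Activity normalized with DMSO taken as 100%.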

T1 sequence (P01116 1-169 isoform P01116-2 G12D): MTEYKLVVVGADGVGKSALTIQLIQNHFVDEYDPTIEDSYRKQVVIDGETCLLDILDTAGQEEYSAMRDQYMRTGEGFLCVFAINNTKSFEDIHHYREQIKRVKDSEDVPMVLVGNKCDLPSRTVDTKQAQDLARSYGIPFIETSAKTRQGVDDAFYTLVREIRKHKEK

Compound	IC50 [nM]
N#Cc1c(N)sc2c(F)ccc(-c3c(C(F)(F)F)cc4c(N5CCc6oncc6C5)nc(OC[C@@]56CCCN5C[C@H](F)C6)nc4c3F)c12 [Compound 507]	100 to 1000
N#Cc1c(N)sc2c(F)ccc(-c3c(C(F)(F)F)cc4c(N5CC6OCC5C6O)nc(OC[C@@]56CCCN5C[C@H](F)C6)nc4c3F)c12 (stereo partly drawn) [Compound 508]	100 to 1000
COC1C2CN(c3nc(OC[C@@]45CCCN4C[C@H](F)C5)nc4c(F)c(-c5ccc(F)c6sc(N)c(C#N)c56)c(C(F)(F)F)cc34)C1CO2 (stereo partly drawn) [Compound 509]	100 to 1000
C[C@@H]1Cn2nc(C(=O)N(C)C)cc2CN1c1nc(OC[C@@]23CCCN2C[C@H](F)C3)nc2c(F)c(-c3ccc(F)c4sc(N)c(C#N)c34)c(C(F)(F)F)cc12 [Compound 510]	1000 to 10000
N#Cc1c(N)sc2c(F)ccc(-c3c(C(F)(F)F)cc4c(N5CCn6nc(C(=O)N7CCC(O)C7)cc6C5)nc(OCC56CCCN5CC(F)C6)nc4c3F)c12 (stereo not drawn) [Compound 513]	100 to 1000
CC(=O)N1CC[C@@H]2[C@H]1CN2c1nc(OC[C@@]23CCCN2C[C@H](F)C3)nc2c(F)c(-c3ccc(F)c4sc(N)c(C#N)c34)c(C(F)(F)F)cc12 [Compound 514]	100 to 1000
CCC(=O)N1CC[C@@H]2[C@H]1CN2c1nc(OC[C@@]23CCCN2C[C@H](F)C3)nc2c(F)c(-c3ccc(F)c4sc(N)c(C#N)c34)c(C(F)(F)F)cc12 [Compound 515]	100 to 1000

Target: T2, Avi-KRAS G12R (1-169) GppNHp/RAF1 RBD-3xFLAG (52-151) (Homo sapiens, UniProt P01116, G12R)
T2 construct: Avi-KRAS G12R (1-169)
Assay: Raf1-KRAS G12R-GppNHP disruption HTRF assay (Biological Example 1)
Format: binding
Conditions: KRAS G12R-GppNHp/RAF1 RBD HTRF
How it was run: as §1

T2 sequence (P01116 1-169 isoform P01116-2 G12R): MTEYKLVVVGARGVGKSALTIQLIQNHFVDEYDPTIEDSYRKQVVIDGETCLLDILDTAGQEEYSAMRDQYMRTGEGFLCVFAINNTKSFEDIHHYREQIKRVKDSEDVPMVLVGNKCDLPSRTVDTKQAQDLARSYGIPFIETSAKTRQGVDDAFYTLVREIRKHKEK

Compound	IC50 [nM]
N#Cc1c(N)sc2c(F)ccc(-c3c(C(F)(F)F)cc4c(N5CCc6oncc6C5)nc(OC[C@@]56CCCN5C[C@H](F)C6)nc4c3F)c12 [Compound 507]	100 to 1000
N#Cc1c(N)sc2c(F)ccc(-c3c(C(F)(F)F)cc4c(N5CC6OCC5C6O)nc(OC[C@@]56CCCN5C[C@H](F)C6)nc4c3F)c12 (stereo partly drawn) [Compound 508]	100 to 1000
COC1C2CN(c3nc(OC[C@@]45CCCN4C[C@H](F)C5)nc4c(F)c(-c5ccc(F)c6sc(N)c(C#N)c56)c(C(F)(F)F)cc34)C1CO2 (stereo partly drawn) [Compound 509]	100 to 1000
C[C@@H]1Cn2nc(C(=O)N(C)C)cc2CN1c1nc(OC[C@@]23CCCN2C[C@H](F)C3)nc2c(F)c(-c3ccc(F)c4sc(N)c(C#N)c34)c(C(F)(F)F)cc12 [Compound 510]	100 to 1000
N#Cc1c(N)sc2c(F)ccc(-c3c(C(F)(F)F)cc4c(N5CCn6nc(C(=O)N7CCC(O)C7)cc6C5)nc(OCC56CCCN5CC(F)C6)nc4c3F)c12 (stereo not drawn) [Compound 513]	100 to 1000
CC(=O)N1CC[C@@H]2[C@H]1CN2c1nc(OC[C@@]23CCCN2C[C@H](F)C3)nc2c(F)c(-c3ccc(F)c4sc(N)c(C#N)c34)c(C(F)(F)F)cc12 [Compound 514]	100 to 1000
CCC(=O)N1CC[C@@H]2[C@H]1CN2c1nc(OC[C@@]23CCCN2C[C@H](F)C3)nc2c(F)c(-c3ccc(F)c4sc(N)c(C#N)c34)c(C(F)(F)F)cc12 [Compound 515]	100 to 1000

Target: T3, Avi-KRAS G12V (1-169) GppNHp/RAF1 RBD-3xFLAG (52-151) (Homo sapiens, UniProt P01116, G12V)
T3 construct: Avi-KRAS G12V (1-169)
Assay: Raf1-KRAS G12V-GppNHP disruption HTRF assay (Biological Example 1)
Format: binding
Conditions: KRAS G12V-GppNHp/RAF1 RBD HTRF
How it was run: as §1

T3 sequence (P01116 1-169 isoform P01116-2 G12V): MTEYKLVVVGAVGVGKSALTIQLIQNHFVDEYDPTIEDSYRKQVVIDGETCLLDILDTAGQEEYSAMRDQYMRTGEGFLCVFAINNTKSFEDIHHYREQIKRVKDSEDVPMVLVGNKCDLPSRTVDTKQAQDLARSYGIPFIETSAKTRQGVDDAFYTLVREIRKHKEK

Compound	IC50 [nM]
N#Cc1c(N)sc2c(F)ccc(-c3c(C(F)(F)F)cc4c(N5CCc6oncc6C5)nc(OC[C@@]56CCCN5C[C@H](F)C6)nc4c3F)c12 [Compound 507]	1000 to 10000
N#Cc1c(N)sc2c(F)ccc(-c3c(C(F)(F)F)cc4c(N5CC6OCC5C6O)nc(OC[C@@]56CCCN5C[C@H](F)C6)nc4c3F)c12 (stereo partly drawn) [Compound 508]	100 to 1000
COC1C2CN(c3nc(OC[C@@]45CCCN4C[C@H](F)C5)nc4c(F)c(-c5ccc(F)c6sc(N)c(C#N)c56)c(C(F)(F)F)cc34)C1CO2 (stereo partly drawn) [Compound 509]	100 to 1000
C[C@@H]1Cn2nc(C(=O)N(C)C)cc2CN1c1nc(OC[C@@]23CCCN2C[C@H](F)C3)nc2c(F)c(-c3ccc(F)c4sc(N)c(C#N)c34)c(C(F)(F)F)cc12 [Compound 510]	1000 to 10000
N#Cc1c(N)sc2c(F)ccc(-c3c(C(F)(F)F)cc4c(N5CCn6nc(C(=O)N7CCC(O)C7)cc6C5)nc(OCC56CCCN5CC(F)C6)nc4c3F)c12 (stereo not drawn) [Compound 513]	100 to 1000
CC(=O)N1CC[C@@H]2[C@H]1CN2c1nc(OC[C@@]23CCCN2C[C@H](F)C3)nc2c(F)c(-c3ccc(F)c4sc(N)c(C#N)c34)c(C(F)(F)F)cc12 [Compound 514]	100 to 1000
CCC(=O)N1CC[C@@H]2[C@H]1CN2c1nc(OC[C@@]23CCCN2C[C@H](F)C3)nc2c(F)c(-c3ccc(F)c4sc(N)c(C#N)c34)c(C(F)(F)F)cc12 [Compound 515]	100 to 1000

Target: T4, Avi-KRAS WT (1-169) GppNHp/RAF1 RBD-3xFLAG (52-151) (Homo sapiens, UniProt P01116)
T4 construct: Avi-KRAS WT (1-169)
Assay: Raf1-KRAS WT-GppNHP disruption HTRF assay (Biological Example 1)
Format: binding
Conditions: KRAS WT-GppNHp/RAF1 RBD HTRF
How it was run: as §1

T4 sequence (P01116 1-169 isoform P01116-2): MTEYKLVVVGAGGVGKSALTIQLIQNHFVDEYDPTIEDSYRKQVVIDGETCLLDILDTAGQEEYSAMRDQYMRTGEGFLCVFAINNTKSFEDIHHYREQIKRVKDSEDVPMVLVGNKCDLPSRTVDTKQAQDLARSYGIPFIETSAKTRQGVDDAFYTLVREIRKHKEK

Compound	IC50 [nM]
N#Cc1c(N)sc2c(F)ccc(-c3c(C(F)(F)F)cc4c(N5CCc6oncc6C5)nc(OC[C@@]56CCCN5C[C@H](F)C6)nc4c3F)c12 [Compound 507]	1000 to 10000
N#Cc1c(N)sc2c(F)ccc(-c3c(C(F)(F)F)cc4c(N5CC6OCC5C6O)nc(OC[C@@]56CCCN5C[C@H](F)C6)nc4c3F)c12 (stereo partly drawn) [Compound 508]	100 to 1000
COC1C2CN(c3nc(OC[C@@]45CCCN4C[C@H](F)C5)nc4c(F)c(-c5ccc(F)c6sc(N)c(C#N)c56)c(C(F)(F)F)cc34)C1CO2 (stereo partly drawn) [Compound 509]	100 to 1000
C[C@@H]1Cn2nc(C(=O)N(C)C)cc2CN1c1nc(OC[C@@]23CCCN2C[C@H](F)C3)nc2c(F)c(-c3ccc(F)c4sc(N)c(C#N)c34)c(C(F)(F)F)cc12 [Compound 510]	1000 to 10000
N#Cc1c(N)sc2c(F)ccc(-c3c(C(F)(F)F)cc4c(N5CCn6nc(C(=O)N7CCC(O)C7)cc6C5)nc(OCC56CCCN5CC(F)C6)nc4c3F)c12 (stereo not drawn) [Compound 513]	100 to 1000
CC(=O)N1CC[C@@H]2[C@H]1CN2c1nc(OC[C@@]23CCCN2C[C@H](F)C3)nc2c(F)c(-c3ccc(F)c4sc(N)c(C#N)c34)c(C(F)(F)F)cc12 [Compound 514]	100 to 1000
CCC(=O)N1CC[C@@H]2[C@H]1CN2c1nc(OC[C@@]23CCCN2C[C@H](F)C3)nc2c(F)c(-c3ccc(F)c4sc(N)c(C#N)c34)c(C(F)(F)F)cc12 [Compound 515]	100 to 1000

Tested on: GP2d cells (KRAS G12D)
Assay: Cell-based pERK HTRF assay in GP2d cell (Biological Example 2)
Conditions: GP2d (KRAS G12D) cells, pERK HTRF
How it was run: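 GP2d (KRAS G12D) cells were plated in DMEM/10% FBS and treated the next day for 60 min with compounds. Dosing used 9-point half-log series starting at 1 μM or 100 nM in 0.25% DMSO. Lysates were read by HTRF pERK (d2/Eu cryptate antibodies) after 4–24 h at room temperature, with excitation at 320 nm and emission at 615 nm.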

Compound	IC50 [nM]
N#Cc1c(N)sc2c(F)ccc(-c3c(C(F)(F)F)cc4c(N5CCn6nc(C(=O)N7CCC(O)C7)cc6C5)nc(OCC56CCCN5CC(F)C6)nc4c3F)c12 (stereo not drawn) [Compound 513]	< 100

Same assay, conditions: GP2d, GP2d (KRAS G12D) cells, pERK HTRF

Compound	IC50 [nM]
N#Cc1c(N)sc2c(F)ccc(-c3c(C(F)(F)F)cc4c(N5CCc6oncc6C5)nc(OC[C@@]56CCCN5C[C@H](F)C6)nc4c3F)c12 [Compound 507]	< 100
N#Cc1c(N)sc2c(F)ccc(-c3c(C(F)(F)F)cc4c(N5CC6OCC5C6O)nc(OC[C@@]56CCCN5C[C@H](F)C6)nc4c3F)c12 (stereo partly drawn) [Compound 508]	< 100
COC1C2CN(c3nc(OC[C@@]45CCCN4C[C@H](F)C5)nc4c(F)c(-c5ccc(F)c6sc(N)c(C#N)c56)c(C(F)(F)F)cc34)C1CO2 (stereo partly drawn) [Compound 509]	< 100
C[C@@H]1Cn2nc(C(=O)N(C)C)cc2CN1c1nc(OC[C@@]23CCCN2C[C@H](F)C3)nc2c(F)c(-c3ccc(F)c4sc(N)c(C#N)c34)c(C(F)(F)F)cc12 [Compound 510]	< 100
CC(=O)N1CC[C@@H]2[C@H]1CN2c1nc(OC[C@@]23CCCN2C[C@H](F)C3)nc2c(F)c(-c3ccc(F)c4sc(N)c(C#N)c34)c(C(F)(F)F)cc12 [Compound 514]	< 100
CCC(=O)N1CC[C@@H]2[C@H]1CN2c1nc(OC[C@@]23CCCN2C[C@H](F)C3)nc2c(F)c(-c3ccc(F)c4sc(N)c(C#N)c34)c(C(F)(F)F)cc12 [Compound 515]	< 100

Tested on: SW620 cells (KRAS G12V)
Assay: Cell-based pERK HTRF assay in SW620 cell (Biological Example 4)
Conditions: Homo sapiens, SW-620, SW620 (KRAS G12V) cells, pERK HTRF
How it was run: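 Read-out: HTRF pERK signal (excitation 320 nm, emission 615 nm) from lysates of SW620 cells after 4 h compound exposure. Dose range was 9 points, half-log steps from 1 μM, in 0.25% DMSO; antibody incubation ran 4–24 h at room temperature.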

Compound	IC50 [nM]
N#Cc1c(N)sc2c(F)ccc(-c3c(C(F)(F)F)cc4c(N5CCc6oncc6C5)nc(OC[C@@]56CCCN5C[C@H](F)C6)nc4c3F)c12 [Compound 507]	< 100
N#Cc1c(N)sc2c(F)ccc(-c3c(C(F)(F)F)cc4c(N5CC6OCC5C6O)nc(OC[C@@]56CCCN5C[C@H](F)C6)nc4c3F)c12 (stereo partly drawn) [Compound 508]	< 100
COC1C2CN(c3nc(OC[C@@]45CCCN4C[C@H](F)C5)nc4c(F)c(-c5ccc(F)c6sc(N)c(C#N)c56)c(C(F)(F)F)cc34)C1CO2 (stereo partly drawn) [Compound 509]	< 100
C[C@@H]1Cn2nc(C(=O)N(C)C)cc2CN1c1nc(OC[C@@]23CCCN2C[C@H](F)C3)nc2c(F)c(-c3ccc(F)c4sc(N)c(C#N)c34)c(C(F)(F)F)cc12 [Compound 510]	< 100
CC(=O)N1CC[C@@H]2[C@H]1CN2c1nc(OC[C@@]23CCCN2C[C@H](F)C3)nc2c(F)c(-c3ccc(F)c4sc(N)c(C#N)c34)c(C(F)(F)F)cc12 [Compound 514]	< 100
CCC(=O)N1CC[C@@H]2[C@H]1CN2c1nc(OC[C@@]23CCCN2C[C@H](F)C3)nc2c(F)c(-c3ccc(F)c4sc(N)c(C#N)c34)c(C(F)(F)F)cc12 [Compound 515]	< 100

Same assay, conditions: SW620 (KRAS G12V) cells, pERK HTRF

Compound	IC50 [nM]
N#Cc1c(N)sc2c(F)ccc(-c3c(C(F)(F)F)cc4c(N5CCn6nc(C(=O)N7CCC(O)C7)cc6C5)nc(OCC56CCCN5CC(F)C6)nc4c3F)c12 (stereo not drawn) [Compound 513]	100 to 1000

— US20260042764A1, “COMPOSITIONS AND METHODS FOR INHIBITION OF KRAS” (TheRas, Inc., priority 2022, published 2026)
